According to patent publication US6562810B1, “8-substituted-9H-1,3-dioxolo/4,5-h//2,3/benzodiazepine derivatives, as AMPA/kainate receptor inhibitors” (Egis Gyogyszergyar RT., priority 1997, dated 2003):
Entries after “also recorded” stand apart in the source; their conditions may differ. Where two headings read alike, the source gives them in different places.

What was measured:
[1] = test system: male NMRI mice; experiment: Global ischemia induced by magnesium chloride (gasping time); format: in vivo; conditions: for Effect in % (increase in gasping time): dose 30 mg/kg ip., 30 minutes before magnesium chloride iv.; for ID50 ip.: gasping time, calculated by linear regression
Experimental: Global Ischemia Induced by Magnesium Chloride
The experiments were carried out as described by Berga et al. /Berga, P., Beckett, P. R., Roberts, D. J., Llenas, J., Massingham, R.: Synergistic interactions between piracetam and dihydroergocristine in some animal models of cerebral hypoxia and ischemia, Arzneim.-Forsch., 36, 1314-1320 (1986)/. Groups of 10 male NMRI mice weighing 20 to 25 g were treated ip. with the test substance in […]. After 30 minutes, saturated aqueous magnesium chloride solution was applied iv. (5 ml/kg) resulting in an immediate cardiac arrest. The elapsed time between the iv. injection and the last gasping was measured (gasping time). The means of the treated groups were expressed as percent of control. Statistical analysis was done by ANOVA followed by DUNCAN test. The dose resulting in 50% descrease in gasping time (ID50) was calculated by linear regression.

[2] = test system: AMPA/kainate receptors; experiment: QNTI (inhibition of quisqualate neurotoxicity) test; format: cell-based, rat; conditions: Inhibition of quisqualate neurotoxicity in primer cortical culture
Experimental: QNTI (inhibition of quisqualate neurotoxicity (test)
The method is based on the phenomenon that the neurotixic effect of quisqualate /i.e. (S)-alpha-amino-3,5-dioxo-1,2,4-oxadiazolidine-2-propanoic acid, an AMPA/kainate agonist/ on the primer telencephalic cell culture of the rat could be inhibited by AMPA/kainate antagonists. The test was performed as described in the literature /Kovács, A. D., Egyed, A.: Protection against non-NMDA receptor-mediated excitotoxicity by GYKI 52466 in mature telencephalic cultures of the rat, Neurobiology, 4, 59-72 (1996)/.

[3] = test system: male NMRI mice; experiment: Maximal electroshock test (MES); format: in vivo; conditions: Inhibition of maximal electroshock, ip., 30 minutes before shock; for ED50: Mus musculus
Experimental: Maximal electroshock test (MES)
Male NMRI mice weighing 20 to 30 g were used for the method of Swinyard et al. /Swinyard, E. A., Brown, W. C. and Goodman, L.S.: Comparative assays of antiepileptic drugs in mice and rats, J. Pharmacol., 106, 319 (1952)//. The animals—10 in each group—were treated ip. either with various doses of the test substance or with vehicle. After 30 minutes, a 50 Hz, 40 mA electroshock was applied for 0.4 s through corneal electrodes. The number of animals that developed tonic extensor convulsion of the hind-limbs was registered, percent inhibition was calculated, and ED50 values were determined by the method of Litchfield and Wilcoxon /Litchfield, J. T., Wilcoxon, F. A.: A simplified method of evaluating dose-effect experiments, J. Pharmacol. Exp. Ther., 96, 99 (1949)/ and summarized in Table IV.

[4] = test system: AMPA/kainate receptors; experiment: PSI (inhibition of population spike) test in CA1 neurones of hippocampus; format: cell-based; conditions: non-cumulative IC50, rat hippocampus
Experimental: PSI (inhibition of population spike) test
The field potentials (population spike) evoked by electric stimulation of the Shaffer collateral comissural pathway were measured in the CAl neurones of rat hippocampus. The population spike can be inhibited by AMPA/kainate antagonists. The non-cumulative IC50 values are shown in Table I. /Tarnawa, I., Molnár, P., Gaál, L., Andrási, F.: Inhibition of hippocampal field potentials by GYKI 52466 in vitro and in vivo, Acta Physiol. Hung., 79(2), 163-9 (1992)/.

[5] = test system: male NMRI mice; experiment: Muscle relaxant effect (inclined screen according to Hoppe); format: in vivo; conditions: ip.; for ED50: Mus musculus, determined at the time of maximal effect; for Muscle relaxant effect duration: time of last reading when the effect was at least 30%
Experimental: The assay was done according to Hoppe in male NMRI mice weighing 20 to 25 g, with 10 animals in each group /Hoppe, J. O., J. Pharmacol. Exp. Ther., 100, 333 (1950)/. Following the ip. treatment of animals, the number of mice showing muscle weakness were recorded at every 10 minutes in the first hour and at half hour intervals afterwards. The animals falling off the 60° inclined screen within 30 seconds were considered positive. ED50 values of the given compounds were determined at each time. The duration of effect was defined as the time of last reading when the effect was at least 30%.

[6] = test system: male DBA/2j strain mice; experiment: Audiogenic seizure (AS) test; format: in vivo; conditions: for ED50: Mus musculus, 0.25 h
Experimental: Audiogenic seizure (AS) test
The experiments were carried out by the slightly modified method of De Sarro et al. /De Sarro, G. B., Croucher, M. J. and Meldrum, B. S.: Anticonvulsant action of DS 103-282, Neuropharm., 23, 525 (1984)/. Groups of 8 male DBA/2j strain mice weighing 7 to 14 g were treated ip. with the test substance in 10 ml/kg volume. 15 minutes later, the animals were placed into a covered glass container (30 cm in diameter) and exposed to a 14 kHz 120 dB tone for 60 s at the most. Seizure response was assessed using the following scale: 0=normal behaviour, 1=wild running, 2=clonus, 3=tonic flexor seizure, 4=tonic extensor seizure. The maximum response during the 60 s exposure was recorded for each animal. Lethality was also noted. The ED50 values were determined by the method of Litchfield and Wilcoxon concerning the inhibition of clonic seizures and tonic extensor convulsions.

[7] = Acute toxicity; conditions: both sexes, mouse, in vivo
Experimental: The study was done in NMRI mice of both sexes, weighing 20 to 25 g, with 6 animals in each dose-group. The test compounds were applied at […], and the maximal per os and ip. doses were 500 mg/kg and 300 mg/kg, respectively. The cumulative lethality was recorded on day 7. The animals were kept under standard laboratory conditions.

## N#CC1=NN=C(c2ccc(N)cc2)c2cc3c(cc2C1)OCO3 [Example 47, 5-(4-Aminophenyl)-8-cyano-9H-1,3-dioxolo/4,5-h//2,3/benzodiazepine]
[1]
  Effect in % (increase in gasping time): 89%
  ID50 ip.: 15 mg/kg

## CC1=NN=C(c2ccc(N)cc2)c2cc3c(cc2C1)OCO3 [“A”, 8-Methyl-5-(4-aminophenyl)-9H-1,3-dioxolo/4,5-h/-/2,3/benzodiazepine, reference compound]
[2]
  IC50: 12 µM
[3]
  ED50: 6.9 mg/kg
[4]
  IC50: 9.1 µM
[5]
  ED50: 24.5 mg/kg
  Muscle relaxant effect duration: 1 h
[6]; ip, read-out: AS convulsion clonic ED50
  ED50: 4.3 mg/kg
[6]; ip, read-out: AS convulsion tonic ED50
  ED50: 3.6 mg/kg
[1]
  Effect in % (increase in gasping time): 55%
  ID50 ip.: 30 mg/kg
[7]; po, NMRI mice, p.o., cumulative lethality on day 7, maximal dose 500 mg/kg, read-out: Appr. LD50 p.o.
  LD50 at 7 day: 500 mg/kg
[7]; NMRI mice, ip., cumulative lethality on day 7, maximal dose 300 mg/kg, read-out: Appr- LD50 ip.
  LD50 at 7 day: 392 mg/kg

## CC1(C#N)Cc2cc3c(cc2C(c2ccc(N)cc2)=NN1C(=O)CCNCCN1CCOCC1)OCO3 (racemic) [Example 89, (±)-5-(4-Aminophenyl)-8-cyano-7,8-dihydro-8-methyl-7-/3-(2-morpholinoethylamino)-propionyl/-9H-1,3-dioxolo/4,5-h//2,3/-benzodiazepine]
[2]
  IC50: 5.4 µM
[3]
  MES ED50: The compound according to Example 89 was significantly more effective at the inhibition of maximal electroshock and sound induced tonic convulsions than the reference compound “A” as shown in Table TV.
  ED50: 2.3 mg/kg
[4]
  IC50: 3 µM
[5]
  ED50: 31.3 mg/kg
  Muscle relaxant effect duration: 1 h
[6]; Inhibition of sound induced seizure, tonic extensor convulsions, DBA/2j mice, ip., 15 minutes
  AS convulsion tonic ED50: The compound according to Example 89 was significantly more effective at the inhibition of maximal electroshock and sound induced tonic convulsions than the reference compound “A” as shown in Table TV.
[6]; Inhibition of sound induced seizure, clonic seizures, DBA/2j mice, ip., 15 minutes, read-out: AS convulsion clonic ED50
  ED50: 5.4 mg/kg
[6]; Inhibition of sound induced seizure, tonic extensor convulsions, DBA/2j mice, ip., 15 minutes, read-out: AS convulsion tonic ED50
  ED50: 1.2 mg/kg
[1]
  Effect in % (increase in gasping time): 117%
  ID50 ip.: 7 mg/kg
[7]; NMRI, ip, 300 mg/kg
  LD50 at 7 day: ~300 mg/kg
[7]; NMRI, po, 500 mg/kg
  LD50 at 7 day: > 500 mg/kg

## CC1(C#N)Cc2cc3c(cc2C(c2ccc([N+](=O)[O-])cc2)=NN1)OCO3 (racemic) [Example 58, (±)-8-Cyano-7,8-dihydro-8-methyl-5-(4-nitrophenyl)-9H-1,3-dioxolo/4,5-h//2,3/benzodiazepine]
other
  melting point: 162 to 164 °C

## Nc1ccc(C2=NN=C(c3nnn[nH]3)Cc3cc4c(cc32)OCO4)cc1 [Example 48, 5-(4-Aminophenyl)-8-(5-tetrazolyl)-9H-1,3-dioxolo/4,5-h//2,3/benzodiazepine]
other
  melting point: 244 to 246 °C

## NC(=O)C1=NN=C(c2ccc(N)cc2)c2cc3c(cc2C1)OCO3 [Example 32, 5-(4-Aminophenyl)-9H-1,3-dioxolo/4,5-h//2,3/benzodiazepine-8-carboxylic amide]
[3]
  MES ED50: 2.5 mg/kg

## CC1(C#N)Cc2cc3c(cc2C(c2ccc([N+](=O)[O-])cc2)=NN1C(=O)CCl)OCO3 (racemic) [Example 73, (±)-8-Cyano-7,8-dihydro-7-chloroacetyl-8-methyl-5-(4-nitrophenyl)-9H-1,3-dioxolo/4,5-h//2,3/benzodiazepine]
[2]
  IC50: 7.4 µM
[4]
  IC50: 6.3 µM
[5]
  ED50: 22.6 mg/kg
  Muscle relaxant effect duration: substantially longer; also recorded: higher than 4 hr
[7]; NMRI, ip, 300 mg/kg
  LD50 at 7 day: ~300 mg/kg
[7]; NMRI, po, 500 mg/kg
  LD50 at 7 day: > 500 mg/kg
